Measured values: US20240074473A1, “METHOD FOR INDUCING HYPERTROPHIC MUSCLE FIBERS FOR INDUSTRIAL MEAT PRODUCTION” (Yeda Research and Development Co. Ltd., priority 2021, published 2024)

Tests used:
primary mouse myoblasts = assay: Fusion index of primary mouse myoblasts (MyHC immunostaining); assay type: cell-based; details: first passage mouse primary myoblasts, 24 hours; 1 μM ERKi in growth medium vs. DM
Method: Isolation of and treatment of primary myoblasts. Primary mouse myoblasts were isolated from gastrocnemius muscle using trypsin-tissue dissociation. Briefly, muscle tissues were incubated in Trypsin B (0.25%, Biological Industries) and subjected to mechanical dissociation with a serological pipet. Supernatants were strained and centrifuged. Pellets were grown resuspended in BioAmf-2 media (Biological Industries, Israel) and plated on 10% Matrigel (BD Biosciences)-coated plates at 37° and 5% CO2. For all in vitro experiments, proliferation medium was Bio-Amf2 (Biological Industries, Israel) and Differentiation medium (DM) was DMEM 2% Horse Serum (HS) with 1% Pen/Strep. For fusion assays, cells were trypsinized with Trypsin C (0.05%, Biological Industries) and subjected to two rounds of preplating on uncoated plates to reduce the number of fibroblasts. Cells were plated at a density of 8×10^3 per well in 10% Matrigel-coated 96-well plates in proliferation medium for 24 hours. The following day, proliferation media was replaced either with proliferation media or with DM containing DMSO (Ctrl) or 1 μM ERK1/2 inhibitor (ERKi; SCH772984, Cayman Chemicals), […] RXR antagonist (RXRi; HX-531, Cayman Chemicals), […] Ryanodine receptor antagonist (RYRi; Dantrolene, Cayman Chemicals), 5 μM CaMKII inhibitor (CaMKIIi; KN93, Cayman Chemicals), or with DM for controls.
Immunofluorescence staining. First passage primary myoblasts isolated from various strains (indicated in figure legends) were plated in 96-well plates or chamber slides and treated as previously described. The cells were fixed with ice cold 4% PFA in PBS for 10 minutes, permeabilized with 0.5% Triton X-100 in PBS for 6 minutes, and blocked in PBS with 0.025% tween, 10% normal horse serum and 10% normal goat serum for 1 hour at room temperature. Primary antibody incubation was done in blocking buffer overnight at 4 degrees, with the following antibodies: Myosin Heavy Chain (MyHC, MF20, DSHB hybridoma supernatant 1:10, or MY-32 ABCAM ab51263 1:400), Myogenin (MYOG sc-13137 SCBT 1:200), pHistone 3 (PH3, ab47297 ABCAM 1:1000), Ki-67 (Cell Marque #275R), RYR (ab2868 ABCAM 1:100), and pCaMKII (SIGMA SAB4504356 1:100). Cells were washed 3 times in PBS with 0.025% tween and then incubated with appropriate secondary antibodies in PBS 1 hour. Where indicated, nuclei were either labeled with DAPI (SIGMA D9542, 5 ug/ml) or Hoechst 33342 (Thermo scientific #62249, 1:2000). Fixed cells at 24 hours post treatment with indicated inhibitors were imaged using the Nikon Eclipse Ti2 microscope (further described in microscopy section). All analysis was performed on at least 1000 nuclei. […]
Quantification of fusion index. Following immunostaining and imaging, a fusion index was quantified by manually identifying nuclei found in a MyHC positive cell with at least 2 nuclei. Then the values were expressed as a percentage of the total nuclei per field. Briefly, in Figures where fusion index is stratified into subgroups of fiber size, the nuclei number in MyHC positive cell was manually quantified in a given field and stratified into groups of mononucleated, bi-nucleated myotubes, myotubes with 3-10 nuclei and myotubes with greater than 10 nuclei. […] Fields were analyzed hourly, and nuclei per cell was quantified and stratified into mononucleated, bi-nucleated, tri-nucleated and cells with ≥4 nuclei.

ERK1/2 and RXR = assay: Co-immunoprecipitation of ERK1/2 and RXR in myoblasts; assay type: cell-based, mouse; details: 1 uM, 4 hours, nuclear lysates
Method: Co-immunoprecipitation (Co-IP). Primary myoblasts derived from gastrocnemius muscle were pooled from 10 mice and plated on 15 cm dishes and allowed to adhere for 24 hours. The following day, Bio-Amf2 media was replaced supplemented either with DMSO or 1 uM SCH772984. […] 1 mg of protein was used to immunoprecipitate ERK1/2 using 2 ug of ERK1/2Antibody (Sigma M7927). Rabbit IgG was used as a control. […] 1% of original volume of lysate loaded into IP reaction was loaded into the gel as input control. Membranes were blotted with RXR antibody (SCBT sc-553).

primary bovine myoblasts = assay: Fusion index of primary bovine myoblasts; assay type: cell-based; details: single administration of 0.5 uM, 72 hours post treatment
Method: Bovine myoblasts were seeded in equal number in 96-well plates and the following day treated either with PM, PM supplemented with 0.5 uM SCH 772984 (ERKi) or differentiation media (DM). Media was replenished daily either with fresh PM or DM (ERKi was not added again). At 72 hours post treatment, cells were fixed and stained for myosin heavy chain, and several fields per condition were imaged. Nuclei per fiber was quantified per field to result in a fusion index. For ovine myoblasts—equal number of cells were seeded in an 8 well chamber slide for 24 hours. The following day cells were treated with either with 1 uM SCH 772984 (ERKi) or differentiation media (DM), supplemented with 100 nM of Sir-Actin reagent, then incubated for 4 hours and then the slide was transferred to a heated and CO2 chambered microscope unit. Several fields of view were selected and live imaging was performed by capturing images of each field every 7 minutes. The series of images for each treatment over a period of 31 hours was stacked into a movie file using ImageJ.
Primary bovine myoblast isolation and treatment: bovine myoblasts were isolated from freshly slaughtered muscle cow muscle with collagenase type II. Following tissue dissociation, the cell suspension was grown for 3-4 days on 10% Matrigel coated plates. […]

Q: `O=C(Nc1ccc2[nH]nc(-c3ccncc3)c2c1)[C@@H]1CCN(CC(=O)N2CCN(c3ccc(-c4ncccn4)cc3)CC2)C1` [SCH772984] was tested. Which “Fusion index (fraction of nuclei in differentiated MyHC+ cells)” value (primary mouse myoblasts) did it give?
A: Its value is 90.5%.

Q: What about the “RXR immunoprecipitated with ERK1/2 (interaction)” value (ERK1/2 and RXR) of the same compound?
A: Its value is “attenuated”.

Q: And the “Increase in fusion index compared to DM” value (primary bovine myoblasts)?
A: Its value is about 8 fold.

Q: What about the “Increase in fusion index compared to DM” value (primary bovine myoblasts; listed as ERKi) of the same compound?
A: Its value is 6 fold.
